Experimental data taken from patent US8865771B2, “Amides useful as inhibitors of voltage-gated sodium channels” (Vertex Pharmaceuticals Incorporated, priority 2007, dated 2014).
pIC50: −log10 of the molar value. Where two headings read alike, the source gives them in different places.

Assays:
[1] = biological target: T1, NaV1.3 (Homo sapiens, UniProt Q9NY46); experiment: NaV inhibition, VIPR optical membrane potential assay with electrical stimulation; assay type: cell-based; set-up: expressed in transfected cells; host or cells: HEK293; settings: activity against NaV 1.3 channel
Protocol: (§1) Compounds of the invention are useful as antagonists of voltage-gated sodium ion channels. Antagonist properties of test compounds were assessed as follows. Cells expressing the NaV of interest were placed into microtiter plates. After an incubation period, the cells were stained with fluorescent dyes sensitive to the transmembrane potential. The test compounds were added to the microtiter plate. The cells were stimulated with either a chemical or electrical means to evoke a NaV dependent membrane potential change from unblocked channels, which was detected and measured with trans-membrane potential-sensitive dyes. Antagonists were detected as a decreased membrane potential response to the stimulus. The optical membrane potential assay utilized voltage-sensitive FRET sensors described by Gonzalez and Tsien (See Gonzalez, J. E. and R. Y. Tsien (1995) “Voltage sensing by fluorescence resonance energy transfer in single cells” Biophys J 69(4): 1272-80, and Gonzalez, J. E. and R. Y. Tsien (1997) “Improved indicators of cell membrane potential that use fluorescence resonance energy transfer” Chem Biol 4(4): 269-77) in combination with instrumentation for measuring fluorescence changes such as the Voltage/Ion Probe Reader (VIPR®) (See Gonzalez, J. E., K. Oades, et al. (1999) “Cell-based assays and instrumentation for screening ion-channel targets” Drug Discov Today 4(9): 431-439).
(§2) C) VIPR® Optical Membrane Potential Assay Method with Electrical Stimulation
(§3) The following is an example of how NaV1.3 inhibition activity is measured using the optical membrane potential method#2. Other subtypes are performed in an analogous mode in a cell line expressing the NaV of interest.
HEK293 cells stably expressing NaV 1.3 are plated into 96-well microtiter plates. After an appropriate incubation period, the cells are stained with the voltage sensitive dyes CC2-DMPE/DiSBAC2(3) as follows.
10 mM CC2-DMPE is vortexed with an equivalent volume of 10% pluronic, followed by vortexing in required amount of HBSS containing 10 mM HEPES. Each cell plate will require 5 mL of 2×CC2-DMPE. 50 μL of 2×CC2-DMPE is to wells containing washed cells, resulting in a 10 μM final staining concentration. The cells are stained for 30 minutes in the dark at RT.
The 2×DiSBAC2(3) solution can be used to solvate compound plates. Note that compound plates are made at 2× drug concentration. Wash stained plate again, leaving residual volume of 50 μL. Add 50 uL/well of the 2×DiSBAC2(3) w/ABSC1. Stain for 30 minutes in the dark at RT.
(§4) The electrical stimulation instrument and methods of use are described in ION Channel Assay Methods PCT/US01/21652, herein incorporated by reference. The instrument comprises a microtiter plate handler, an optical system for exciting the coumarin dye while simultaneously recording the coumarin and oxonol emissions, a waveform generator, a current- or voltage-controlled amplifier, and a device for inserting electrodes in well. Under integrated computer control, this instrument passes user-programmed electrical stimulus protocols to cells within the wells of the microtiter plate.
(§5) Assay Protocol • 1. Insert or use electrodes into each well to be assayed. • 2. Use the current-controlled amplifier to deliver stimulation wave pulses for 3 s. Two seconds of pre-stimulus recording are performed to obtain the un-stimulated intensities. Five seconds of post-stimulation recording are performed to examine the relaxation to the resting state.
(§6) Data are analyzed and reported as normalized ratios of background-subtracted emission intensities measured in the 460 nm and 580 nm channels. Background intensities are then subtracted from each assay channel. Background intensities are obtained by measuring the emission intensities during the same time periods from identically treated assay wells in which there are no cells. The response as a function of time is then reported as the ratios obtained using the following formula: […]
Target sequence in this assay (Q9NY46 whole entry): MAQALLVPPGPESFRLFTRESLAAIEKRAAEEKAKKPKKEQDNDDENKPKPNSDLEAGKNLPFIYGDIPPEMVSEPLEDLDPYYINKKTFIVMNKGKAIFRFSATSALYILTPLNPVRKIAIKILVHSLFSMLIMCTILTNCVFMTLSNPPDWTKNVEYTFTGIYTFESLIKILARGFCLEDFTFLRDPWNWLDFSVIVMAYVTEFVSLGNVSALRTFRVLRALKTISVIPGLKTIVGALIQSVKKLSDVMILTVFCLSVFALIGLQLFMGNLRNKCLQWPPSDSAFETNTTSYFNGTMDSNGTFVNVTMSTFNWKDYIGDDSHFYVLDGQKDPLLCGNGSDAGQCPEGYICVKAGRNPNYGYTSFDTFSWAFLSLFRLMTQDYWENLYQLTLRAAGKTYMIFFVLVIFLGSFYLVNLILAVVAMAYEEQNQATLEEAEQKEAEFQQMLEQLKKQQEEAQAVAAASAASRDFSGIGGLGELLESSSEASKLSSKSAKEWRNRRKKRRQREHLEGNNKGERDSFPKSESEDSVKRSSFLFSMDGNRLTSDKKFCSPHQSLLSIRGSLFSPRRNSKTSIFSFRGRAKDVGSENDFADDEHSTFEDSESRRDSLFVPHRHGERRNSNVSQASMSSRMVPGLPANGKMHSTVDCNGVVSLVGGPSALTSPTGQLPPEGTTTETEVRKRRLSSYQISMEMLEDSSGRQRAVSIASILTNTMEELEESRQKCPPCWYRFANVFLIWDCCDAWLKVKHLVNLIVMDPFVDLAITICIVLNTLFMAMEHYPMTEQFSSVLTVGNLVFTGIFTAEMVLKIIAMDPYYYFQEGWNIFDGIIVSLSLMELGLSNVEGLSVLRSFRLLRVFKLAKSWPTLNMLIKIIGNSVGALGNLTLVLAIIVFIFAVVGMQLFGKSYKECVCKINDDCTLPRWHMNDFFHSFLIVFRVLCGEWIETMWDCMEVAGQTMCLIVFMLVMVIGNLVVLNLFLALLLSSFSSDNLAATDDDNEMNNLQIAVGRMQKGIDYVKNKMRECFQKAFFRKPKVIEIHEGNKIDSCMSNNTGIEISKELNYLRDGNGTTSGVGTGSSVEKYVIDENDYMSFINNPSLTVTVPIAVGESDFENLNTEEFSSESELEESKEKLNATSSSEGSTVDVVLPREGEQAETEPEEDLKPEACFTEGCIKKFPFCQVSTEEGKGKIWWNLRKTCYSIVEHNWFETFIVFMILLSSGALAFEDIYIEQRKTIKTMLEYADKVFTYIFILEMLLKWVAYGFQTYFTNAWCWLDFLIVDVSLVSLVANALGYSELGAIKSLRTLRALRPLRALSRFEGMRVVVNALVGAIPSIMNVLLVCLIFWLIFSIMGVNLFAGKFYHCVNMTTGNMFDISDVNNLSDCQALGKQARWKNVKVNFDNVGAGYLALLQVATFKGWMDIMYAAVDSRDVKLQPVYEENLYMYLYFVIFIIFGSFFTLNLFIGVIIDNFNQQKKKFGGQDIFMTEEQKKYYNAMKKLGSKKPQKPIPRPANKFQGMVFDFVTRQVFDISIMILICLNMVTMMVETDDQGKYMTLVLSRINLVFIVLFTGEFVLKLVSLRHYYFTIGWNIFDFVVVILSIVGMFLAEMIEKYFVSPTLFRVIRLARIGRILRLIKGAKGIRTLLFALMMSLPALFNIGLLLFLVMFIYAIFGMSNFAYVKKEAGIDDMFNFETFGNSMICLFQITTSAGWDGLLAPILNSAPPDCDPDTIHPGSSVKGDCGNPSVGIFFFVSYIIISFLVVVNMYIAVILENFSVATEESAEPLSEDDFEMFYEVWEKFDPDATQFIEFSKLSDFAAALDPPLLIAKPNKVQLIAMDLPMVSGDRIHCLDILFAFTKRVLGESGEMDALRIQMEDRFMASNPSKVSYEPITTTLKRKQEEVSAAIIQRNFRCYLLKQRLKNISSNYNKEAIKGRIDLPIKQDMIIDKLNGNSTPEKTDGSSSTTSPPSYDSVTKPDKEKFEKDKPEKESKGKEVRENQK

[2] = biological target: T2, NaV1.8 (Homo sapiens, UniProt Q9Y5Y9); experiment: NaV inhibition, optical membrane potential assay (analogous mode); assay type: cell-based; settings: activity against NaV 1.8 channel
Protocol: as §1, §2, §3, §4, §5, §6
(§7) The data is further reduced by calculating the initial (Ri) and final (Rf) ratios. These are the average ratio values during part or all of the pre-stimulation period, and during sample points during the stimulation period. The response to the stimulus ρ=Rf/Ri is then calculated.
(§8) Control responses are obtained by performing assays in the presence of a compound with the desired properties (positive control) and in the absence of pharmacological agents (negative control). Responses to the negative (N) and positive (P) controls are calculated as above. The activity A of the assay well relative to positive and negative controls is defined as: […]

[3] = biological target: NaV 1.7 channel (Homo sapiens, UniProt Q15858); experiment: as above; assay type: cell-based; settings: activity against NaV 1.7 channel
Protocol: as §1, §2, §3, §4, §5, §6, §7, §8

[4] = biological target: T1, NaV1.3; settings: read-out: TTX IC50; cited from earlier work
Target sequence in this assay (Q9NY46 whole entry, looked up): as the sequence (Q9NY46 whole entry) above

[5] = biological target: NaV1.6 (Homo sapiens, UniProt Q9UQD0); settings: read-out: TTX IC50; cited from earlier work
[6] = biological target: NaV1.9 (Homo sapiens, UniProt Q9UI33); settings: read-out: TTX IC50; cited from earlier work
[7] = biological target: T2, NaV1.8; settings: read-out: TTX IC50; cited from earlier work

Chain of NaV 1.7 channel (Q15858 whole entry): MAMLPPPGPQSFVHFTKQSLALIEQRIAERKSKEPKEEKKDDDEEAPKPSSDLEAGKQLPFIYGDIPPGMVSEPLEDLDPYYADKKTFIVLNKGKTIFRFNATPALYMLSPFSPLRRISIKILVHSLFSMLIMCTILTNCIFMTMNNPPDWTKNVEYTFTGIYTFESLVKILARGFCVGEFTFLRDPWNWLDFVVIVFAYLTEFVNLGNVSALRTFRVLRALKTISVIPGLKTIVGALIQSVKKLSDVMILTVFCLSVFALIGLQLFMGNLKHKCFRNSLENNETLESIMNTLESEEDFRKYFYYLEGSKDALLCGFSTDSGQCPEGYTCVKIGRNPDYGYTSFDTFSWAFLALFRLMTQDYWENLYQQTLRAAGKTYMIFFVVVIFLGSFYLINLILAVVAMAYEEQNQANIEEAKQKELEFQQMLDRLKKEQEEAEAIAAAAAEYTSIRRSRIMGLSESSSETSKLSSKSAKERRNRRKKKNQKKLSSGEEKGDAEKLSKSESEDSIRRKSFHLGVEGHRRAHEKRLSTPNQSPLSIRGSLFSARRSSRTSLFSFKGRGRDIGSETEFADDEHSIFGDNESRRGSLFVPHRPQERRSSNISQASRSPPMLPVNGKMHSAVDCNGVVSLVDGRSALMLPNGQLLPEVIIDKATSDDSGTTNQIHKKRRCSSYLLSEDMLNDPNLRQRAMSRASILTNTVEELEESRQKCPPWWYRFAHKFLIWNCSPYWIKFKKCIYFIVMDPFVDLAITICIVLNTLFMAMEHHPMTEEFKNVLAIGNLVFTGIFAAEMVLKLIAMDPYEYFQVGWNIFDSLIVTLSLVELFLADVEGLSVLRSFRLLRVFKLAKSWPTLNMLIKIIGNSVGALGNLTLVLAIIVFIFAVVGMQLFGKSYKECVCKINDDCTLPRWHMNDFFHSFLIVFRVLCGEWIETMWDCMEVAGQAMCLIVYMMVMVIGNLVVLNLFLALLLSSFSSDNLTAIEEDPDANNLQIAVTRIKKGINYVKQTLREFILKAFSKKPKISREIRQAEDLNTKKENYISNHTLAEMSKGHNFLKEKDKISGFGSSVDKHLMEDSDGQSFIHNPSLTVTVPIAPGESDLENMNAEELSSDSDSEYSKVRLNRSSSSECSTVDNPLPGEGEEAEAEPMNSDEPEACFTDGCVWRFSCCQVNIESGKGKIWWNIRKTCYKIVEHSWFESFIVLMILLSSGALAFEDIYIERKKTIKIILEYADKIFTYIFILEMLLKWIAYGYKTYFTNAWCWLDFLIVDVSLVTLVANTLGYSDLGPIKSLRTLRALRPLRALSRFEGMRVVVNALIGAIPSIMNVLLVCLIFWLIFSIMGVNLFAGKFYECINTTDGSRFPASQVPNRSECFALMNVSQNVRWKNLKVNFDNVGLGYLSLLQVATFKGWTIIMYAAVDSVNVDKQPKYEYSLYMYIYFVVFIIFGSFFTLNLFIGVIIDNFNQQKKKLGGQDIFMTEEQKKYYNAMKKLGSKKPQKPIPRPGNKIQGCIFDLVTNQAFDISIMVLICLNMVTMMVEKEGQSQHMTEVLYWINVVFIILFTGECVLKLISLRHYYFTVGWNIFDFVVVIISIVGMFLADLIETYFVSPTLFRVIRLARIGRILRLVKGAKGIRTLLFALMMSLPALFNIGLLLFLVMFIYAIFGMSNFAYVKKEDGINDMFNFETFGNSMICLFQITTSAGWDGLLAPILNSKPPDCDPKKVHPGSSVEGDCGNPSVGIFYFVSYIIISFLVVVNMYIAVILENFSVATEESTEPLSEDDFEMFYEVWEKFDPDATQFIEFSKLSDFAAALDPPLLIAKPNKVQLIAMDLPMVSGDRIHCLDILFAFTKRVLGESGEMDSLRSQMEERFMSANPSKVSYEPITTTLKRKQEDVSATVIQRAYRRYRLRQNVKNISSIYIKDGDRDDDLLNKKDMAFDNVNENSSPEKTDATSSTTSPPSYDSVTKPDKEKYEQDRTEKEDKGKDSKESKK

| Structure (SMILES) | pIC50 [1] | pIC50 [2] | pIC50 [3] | pIC50 [4] | pIC50 [5] | pIC50 [6] | pIC50 [7] |
| --- | --- | --- | --- | --- | --- | --- | --- |
| NS(=O)(=O)c1cncc(NC(=O)c2ccc(C(F)(F)F)cc2Oc2ccc(C(F)(F)F)nc2)c1 [Compound 5, N-(5-Sulfamoylpyridin-3-yl)-4-(trifluoromethyl)-2-(6-(trifluoromethyl)pyridin-3-yloxy)benzamide] | < 4.70 | 5.00 to 5.70 | < 4.70 |  |  |  |  |
| CS(=O)(=O)c1cncc(NC(=O)c2ccc(C(F)(F)F)cc2Oc2ccc(C(F)(F)F)nc2)c1 [Compound 8] | < 4.70 | 5.00 to 5.70 | < 4.70 |  |  |  |  |
| CC(C)(C)c1ccc(C(=O)Nc2cncc(S(C)(=O)=O)c2)c(Oc2ccc(F)cc2Cl)c1 [Compound 7] | 4.70 to 5.00 | > 5.70 | 4.70 to 5.00 |  |  |  |  |
| NC1=N[C@H](O)[C@H]2[C@H]3O[C@]4(O)O[C@@H]([C@@H](O)[C@@]2(N1)[C@@H]4O)[C@]3(O)CO [TTX, tetrodotoxin] |  |  |  | 7.82 | 8.22 | 6.00 | < 4.30 |
| CC(C)(C)c1ccc(C(=O)Nc2cncc(S(N)(=O)=O)c2)c(Oc2ccc(F)cc2Cl)c1 [Compound 2] | 5.00 to 5.70 | > 5.70 | 5.00 to 5.70 |  |  |  |  |
| CC(C)(C)c1ccc(C(=O)Nc2cncc(S(C)(=O)=O)c2)c(Oc2cccc(C(F)(F)F)n2)c1 [Compound 9] | 4.70 to 5.00 | 5.00 to 5.70 | 4.70 to 5.00 |  |  |  |  |
| Cc1ncccc1Oc1cc(C(C)(C)C)ccc1C(=O)Nc1cncc(S(N)(=O)=O)c1 [Compound 1] | < 4.70 | > 5.70 | < 4.70 |  |  |  |  |
| CC(C)(C)c1ccc(C(=O)Nc2cncc(S(N)(=O)=O)c2)c(Oc2ccc(C(F)(F)F)nc2)c1 [Compound 3] | 4.70 to 5.00 | > 5.70 | 5.00 to 5.70 |  |  |  |  |
| CC(C)(C)c1ccc(C(=O)Nc2cncc(S(C)(=O)=O)c2)c(Oc2ccc(C(F)(F)F)nc2)c1 [Compound 6, 4-tert-Butyl-N-(5-(methylsulfonyl)pyridin-3-yl)-2-(6-(trifluoromethyl)pyridin-3-yloxy)benzamide] | 4.70 to 5.00 | 5.00 to 5.70 | < 4.70 |  |  |  |  |
| CC(C)(C)c1ccc(C(=O)Nc2cncc(S(N)(=O)=O)c2)c(Oc2cccc(C(F)(F)F)n2)c1 [Compound 4] | 4.70 to 5.00 | > 5.70 | < 4.70 |  |  |  |  |
